Converted amounts (≈) assume the structure as drawn.
Legend:
Assay type in all cases: in vivo
[1] = tested on: bean aphid (Aphis fabae Scop.); test: Bean Aphid Foliage Spray Test; parameters: key to Aphid: C: no control; B: partial control; A: excellent control; conditions: for Aphid: foliage spray, 500 parts per million, 24 hour; for LC50: Aphis fabae, foliar, Table II, side by side comparison, read-out: Aphids LD50
Experimental: (§1) Suspensions of the test compounds were prepared by dissolving one gram of compound in 50 milliliters of acetone in which had been dissolved 0.1 gram (10 percent of the weight of compound) of an alkylphenoxy polyethoxyethanol surfactant, as an emulsifying or dispersing agent. The resulting solution was mixed into 150 milliliters of water to give roughly 200 milliliters of a suspension containing the compound in finely divided form. The thus-prepared stock suspension contained 0.5 percent by weight of compound. The test concentrations in parts per million by weight employed in the tests described hereinbelow were obtained by appropriate dilutions of the stock suspension with water. The test procedures were as follows:
Adults and nymphal stages of the bean aphid (Aphis fabae Scop.) reared on potted dwarf nasturtium plants at 65°-70° F. and 50-70 percent relative humidity, constituted the test insects. For testing purposes, the number of aphids per pot was standardized to 100-150 by trimming plants containing excess aphids.
The test compounds were formulated by diluting the stock suspension with water to give a suspension containing 500 parts of test compound per million parts of final formulation.
The potted plants (one pot per compound tested) infested with 100-150 aphids, were placed on a revolving turntable and sprayed with 100-110 milliliters of test compound formulation by use of a DeVilbiss spray gun set at 40 psig. air pressure. This application, which lasted 25 seconds, was sufficient to wet the plants to run-off. As a control, 100-110 milliliters of a water-acetone-emulsifier solution containing no test compound were also sprayed on infested plants. After spraying, the pots were placed on their sides on a sheet of white standard mimeograph paper which had been previously ruled to facilitate counting. Temperature and humidity in the test room during the 24 hour holding period were 65°-70° F. and 50-70 percent, respectively. Aphids which fell onto the paper and were unable to remain standing after being uprighted were considered dead. Aphids remaining on the plants were observed closely for movement and those which were unable to move the length of the body upon stimulation by prodding were considered dead. Percent mortality was recorded for various concentration levels.
(§2) In the tests described above, the pesticidal activity of the compounds against aphid, mite, Southern Armyworm, Bean Beetle, house fly and nematode was rated as follows:
(§3) Comparison tests were conducted to assess the biological and chemical properties of certain representative species of the claimed invention in relation to their corresponding N-methyl carbamate compositions. The test procedures described above were employed in these experiments in order to determine the LD50 (number of parts per million of active ingredients required to achieve fifty percent mortality of the insects tested) for each of the compositions tested. In the case of the aphid and mite tests a side by side comparison was made of the N-methyl carbamate composition versus the corresponding perhalomethylsulfenyl derivative.

[2] = tested on: house flies (Musca domestica, L.); test: Fly Bait Test; parameters: key to Fly: C: no control; B: partial control; A: excellent control; conditions: for Fly: bait, 500 parts per million, twenty-four hours; for LC50: Musca domestica, Table II, read-out: Housefly LD50
Experimental: as §1
Four to six day old adult house flies (Musca domestica, L.), reared according to the specifications of the Chemical Specialties Manufacturing Association (Blue Book, McNair-Dorland Co., N. Y. 1954; pages 243-244, 261) under controlled conditions of 80°±5° F. and 50±5 percent relative humidity, were the test insects. The flies were immobilized by anesthetizing with carbon dioxide and twenty-five immobilized individuals, males and females, were transferred to a cage consisting of a standard food strainer about five inches in diameter which was inverted over a wrapping-paper-covered surface. The test compounds were formulated by diluting the stock suspension with a 10 percent (by weight) sugar solution to give a suspension containing 500 parts of test compound per million parts of final formulation, by weight. Ten milliliters of the test formulation were added to a souffle cup containing a one-inch square of an absorbent cotton pad. This bait cup was introduced and centered on the blotting paper under the food strainer prior to admitting the anesthetized flies. The caged flies were allowed to feed on the bait for twenty-four hours, at a temperature of 80°±5° F. and the relative humidity of 50±5 percent.
as §2, §3

[3] = tested on: two-spotted mite (Tetranychus urticae Koch); test: Mite Foliage Spray Test; parameters: key to Mite (Spray): C: no control; B: partial control; A: excellent control; conditions: for Mite (Spray): foliage spray, 500 parts per million, six days; for LC50: Tetranychus urticae, foliar, Table II, side by side comparison, read-out: Mites Spray LD50
Experimental: as §1
(§4) Adults and numphal stages of the two-spotted mite (Tetranychus urticae Koch), reared on Tendergreen bean plants at 80±5 percent relative humidity, were the test organisms. Infested leaves from a stock culture were placed on the primary leaves of two bean plants six to eight inches in height, growing in a 21/2 inch clay pot. 150 -200 Mites, a sufficient number for testing, transferred from the excised leaves to the fresh plants in a period of twenty-four hours. Following the twenty-four hour transfer period, the excised leaves were removed from the infested plants. The test compounds were formulated by diluting the stock suspension with water to give a suspension containing 500 parts of test compound per million parts of final formulation. The potted plants (one pot per compound) were placed on a revolving turntable and sprayed with 100-110 milliliters of test compound formulation by use of a DeVilbiss spray gun set at 40 psig. air pressure. This application, which lasted 25 seconds, was sufficient to wet the plants to run-off. As a control, 100-110 milliliters of a water solution containing acetone and emulsifier in the same concentrations as the test compound formulation, but containing no test compound, were also sprayed on infested plants. The sprayed plants were held at 80±5 percent relative humidity for six days, after which a mortality count of motile forms was made. Microscopic examination for motile forms was made on the leaves of the test plants. Any individual which was capable of locomotion upon prodding was considered living.
as §2, §3

[4] = tested on: two-spotted mite (Tetranychus urticae Koch); test: Mite Systemic Test; parameters: key: C: no control; B: partial control; A: excellent control; conditions: soil drench, 20 milliliters of test formulation
Experimental: as §1, §4
Systemic treatments were made by drenching 20 milliliters of the test compound formulation into the soil around the roots of bean plants growing in 21/2 inch clay pots. These pots were held in 4 ounce wax paper containers to prevent cross-contamination and loss by leaching. The plants were 4 inches high at the time of treatment and had been infested with mites 24 hours previously. Subsequent steps for testing of the systemic miticidal activity were the same as those described above for the spray method of application.
In the tests described above, the pesticidal activity of the compounds against aphid, mite, Southern Armyworm, Bean Beetle, house fly and nematode was rated as follows: […]

CC(=NOC(=O)N(C)SC(Cl)(Cl)Cl)C(C)(C)C#N was tested, and the Aphid [1] was “A”, the Fly [2] was “A” and the “Mite (Spray)” value [3] was “A”. The “Mite (Systemic)” value [4] was “A”.
CN(SC(Cl)(Cl)Cl)C(=O)ON=CC(C)(C)C#N [2-Methyl-2-cyanopropionaldehyde O-(N-methyl-N-trichloromethanesulfenylcarbamoyl)oxime] was tested, and the LC50 [1] was 23 µg/mL (≈ 72.2 µM), the Aphid [1] was “A” and the LC50 [2] was 7 µg/mL (≈ 22 µM). For the same compound, the Fly [2] was “A”, the LC50 [3] was 23 µg/mL (≈ 72.2 µM) and the “Mite (Spray)” value [3] was “A”. For the same compound, the “Mite (Systemic)” value [4] was “A”.
With CN(SC(F)(F)F)C(=O)ON=CC(C)(C)C#N [drawing 12] the Aphid [1] was “A”, the Fly [2] was “A” and the “Mite (Spray)” value [3] was “A”.
In the case of CC(=NOC(=O)N(C)SC(Cl)(Cl)Cl)C(C)(C)[N+](=O)[O-], the Aphid [1] is reported as “A”, the Fly [2] is reported as “A” and the “Mite (Spray)” value [3] is reported as “A”. For the same compound, the “Mite (Systemic)” value [4] was “A”.
For CSCC(C)=NOC(=O)N(C)SC(Cl)(Cl)Cl, the Aphid [1] was “B”, the Fly [2] was “A” and the “Mite (Spray)” value [3] was “C”. The “Mite (Systemic)” value [4] was “C”.
CCOC(=O)CSC(C)=NOC(=O)N(C)SC(Cl)(Cl)Cl was tested, and the Aphid [1] was “C”, the Fly [2] was “C” and the “Mite (Spray)” value [3] was “C”. For the same compound, the “Mite (Systemic)” value [4] was “C”.
In the case of CSC(=NOC(=O)N(C)SC(Cl)(Cl)Cl)C(C)(SC)SC, the Aphid [1] is reported as “A”, the Fly [2] is reported as “A” and the “Mite (Spray)” value [3] is reported as “A”. The “Mite (Systemic)” value [4] was “B”.
With CN(SC(Cl)(Cl)Cl)C(=O)ON=CC(C)(C)[S+](C)[O-] (centres unmarked) [2-Methyl-2-methylsulfinylpropionaldehyde O-(N-methyl-N-trichloromethanesulfenylcarbamoyl)oxime] the Aphid [1] was “A”, the Fly [2] was “A” and the “Mite (Spray)” value [3] was “A”. For the same compound, the “Mite (Systemic)” value [4] was “A”.
With CSCC(=NOC(=O)N(C)SC(Cl)(Cl)Cl)C(C)(C)C the Aphid [1] was “A”, the Fly [2] was “B” and the “Mite (Spray)” value [3] was “A”. For the same compound, the “Mite (Systemic)” value [4] was “A”.
With CC(C[N+](=O)[O-])=NOC(=O)N(C)SC(Cl)(Cl)Cl the Aphid [1] was “C”, the Fly [2] was “A” and the “Mite (Spray)” value [3] was “C”. The “Mite (Systemic)” value [4] was “C”.
With CCOC(=O)C(C)SC(C)(C)C=NOC(=O)N(C)SC(Cl)(Cl)Cl (centres unmarked) the Aphid [1] was “A”, the Fly [2] was “C” and the “Mite (Spray)” value [3] was “B”. For the same compound, the “Mite (Systemic)” value [4] was “B”.
In the case of CC(=NOC(=O)N(C)SC(Cl)(Cl)Cl)C(C)(C)N=[N+]=[N-], the Aphid [1] is reported as “A”, the Fly [2] is reported as “A” and the “Mite (Spray)” value [3] is reported as “C”. For the same compound, the “Mite (Systemic)” value [4] was “C”.
For CN(SC(Cl)(Cl)Cl)C(=O)ON=CC(C)(C)[N+](=O)[O-] [2-Methyl-2-nitropropionaldehyde O-(N-methyl-N-trichloromethanesulfenylcarbamoyl)oxime], the LC50 [1] was 6 µg/mL (≈ 17.7 µM), the Aphid [1] was “A” and the LC50 [2] was 5 µg/mL (≈ 14.8 µM). The Fly [2] was “A”, the LC50 [3] was 40 µg/mL (≈ 118 µM) and the “Mite (Spray)” value [3] was “A”. For the same compound, the “Mite (Systemic)” value [4] was “A”.
CC(=NOC(=O)N(C)SC(Cl)(Cl)Cl)SCCC#N [1-(2-Cyanoethylthio)acetaldehyde O-(N-methyl-N-trichloromethanesulfenylcarbamoyl)oxime] was tested, and the LC50 [1] was 10 µg/mL (≈ 28.5 µM), the Aphid [1] was “A” and the LC50 [2] was 3 µg/mL (≈ 8.55 µM). The Fly [2] was “A”, the LC50 [3] was 22 µg/mL (≈ 62.7 µM) and the “Mite (Spray)” value [3] was “A”.
CCOC(=O)CCSC(C)=NOC(=O)N(C)SC(Cl)(Cl)Cl was tested, and the Aphid [1] was “B”, the Fly [2] was “B” and the “Mite (Spray)” value [3] was “C”. The “Mite (Systemic)” value [4] was “C”.
In the case of COC(C)(C)C(Cl)=NOC(=O)N(C)SC(Cl)(Cl)Cl, the Aphid [1] is reported as “A”, the Fly [2] is reported as “A” and the “Mite (Spray)” value [3] is reported as “A”. For the same compound, the “Mite (Systemic)” value [4] was “A”.
CC(CSC(C)(C)C)=NOC(=O)N(C)SC(Cl)(Cl)Cl was tested, and the Aphid [1] was “A”, the Fly [2] was “C” and the “Mite (Spray)” value [3] was “C”. The “Mite (Systemic)” value [4] was “C”.
In the case of CN(SC(Cl)(Cl)Cl)C(=O)ON=CC(C)(C)S(C)(=O)=O [2-Methyl-2-methylsulfonylpropionaldehyde O-(N-methyl-N-trichloromethanesulfenylcarbamoyl)oxime], the Aphid [1] is reported as “A”, the Fly [2] is reported as “A” and the “Mite (Spray)” value [3] is reported as “A”. The “Mite (Systemic)” value [4] was “C”.
CCOC(=O)CSC(C)(C)C=NOC(=O)N(C)SC(Cl)(Cl)Cl was tested, and the Aphid [1] was “A”, the Fly [2] was “C” and the “Mite (Spray)” value [3] was “C”. For the same compound, the “Mite (Systemic)” value [4] was “C”.

Source: patent publication US4029688A, “Carbamic pesticidal compositions” (priority 1974, dated 1977)
